Data from patent US12649750B2, “Macrocyclic compounds, compositions, and methods of using thereof” (Sionna Therapeutics Inc., priority 2022, dated 2026).

How the values were obtained:
NBD1 = biological target: T1, NBD1 (Homo sapiens, UniProt P13569); assay: Aggregation analysis using differential static light scattering (DSLS), thermal stability of NBD1 (ΔTagg); type: binding; settings: ΔTagg versus DMSO control, NBD1 0.2 mg/ml
T1 construct: Purified recombinant NBD1 was produced using previously described methods; made in house
T1 sequence (P13569 423-646 limits assumed): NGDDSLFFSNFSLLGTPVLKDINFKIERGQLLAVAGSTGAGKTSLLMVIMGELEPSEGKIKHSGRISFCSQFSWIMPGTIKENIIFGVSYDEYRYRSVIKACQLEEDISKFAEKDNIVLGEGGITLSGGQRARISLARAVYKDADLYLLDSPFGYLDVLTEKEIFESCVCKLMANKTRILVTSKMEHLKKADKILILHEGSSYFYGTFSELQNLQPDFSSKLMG
Outline: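 Stabilisation is measured as the shift in aggregation onset of recombinant NBD1 (0.2 mg/ml, 2 mM ATP, 5 mM MgCl2, pH7.6) exposed to compound. Images are taken every 0.5° C. while heating at 1° C. per minute, and the inflection-point Tagg is corrected by the DMSO mean.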

CFTR = biological target: T2, CFTR (Homo sapiens, UniProt P13569, DEL508-508); assay: TECC24 AUC fold over DMSO @10 μM, CFTR-mediated transepithelial chloride transport in CF-HBE cells; type: cell-based; settings: test agent AUC divided by DMSO vehicle AUC, primary CF-HBE cells, ΔF508 homozygous donor, 48 hours incubation
T2 construct: Primary human bronchial epithelial cells from a ΔF508 homozygous CF donor; host or cells: primary human bronchial epithelial cells (CF-HBE), ΔF508 homozygous donor
T2 sequence (P13569 with tags, fused parts or gaps DEL508-508): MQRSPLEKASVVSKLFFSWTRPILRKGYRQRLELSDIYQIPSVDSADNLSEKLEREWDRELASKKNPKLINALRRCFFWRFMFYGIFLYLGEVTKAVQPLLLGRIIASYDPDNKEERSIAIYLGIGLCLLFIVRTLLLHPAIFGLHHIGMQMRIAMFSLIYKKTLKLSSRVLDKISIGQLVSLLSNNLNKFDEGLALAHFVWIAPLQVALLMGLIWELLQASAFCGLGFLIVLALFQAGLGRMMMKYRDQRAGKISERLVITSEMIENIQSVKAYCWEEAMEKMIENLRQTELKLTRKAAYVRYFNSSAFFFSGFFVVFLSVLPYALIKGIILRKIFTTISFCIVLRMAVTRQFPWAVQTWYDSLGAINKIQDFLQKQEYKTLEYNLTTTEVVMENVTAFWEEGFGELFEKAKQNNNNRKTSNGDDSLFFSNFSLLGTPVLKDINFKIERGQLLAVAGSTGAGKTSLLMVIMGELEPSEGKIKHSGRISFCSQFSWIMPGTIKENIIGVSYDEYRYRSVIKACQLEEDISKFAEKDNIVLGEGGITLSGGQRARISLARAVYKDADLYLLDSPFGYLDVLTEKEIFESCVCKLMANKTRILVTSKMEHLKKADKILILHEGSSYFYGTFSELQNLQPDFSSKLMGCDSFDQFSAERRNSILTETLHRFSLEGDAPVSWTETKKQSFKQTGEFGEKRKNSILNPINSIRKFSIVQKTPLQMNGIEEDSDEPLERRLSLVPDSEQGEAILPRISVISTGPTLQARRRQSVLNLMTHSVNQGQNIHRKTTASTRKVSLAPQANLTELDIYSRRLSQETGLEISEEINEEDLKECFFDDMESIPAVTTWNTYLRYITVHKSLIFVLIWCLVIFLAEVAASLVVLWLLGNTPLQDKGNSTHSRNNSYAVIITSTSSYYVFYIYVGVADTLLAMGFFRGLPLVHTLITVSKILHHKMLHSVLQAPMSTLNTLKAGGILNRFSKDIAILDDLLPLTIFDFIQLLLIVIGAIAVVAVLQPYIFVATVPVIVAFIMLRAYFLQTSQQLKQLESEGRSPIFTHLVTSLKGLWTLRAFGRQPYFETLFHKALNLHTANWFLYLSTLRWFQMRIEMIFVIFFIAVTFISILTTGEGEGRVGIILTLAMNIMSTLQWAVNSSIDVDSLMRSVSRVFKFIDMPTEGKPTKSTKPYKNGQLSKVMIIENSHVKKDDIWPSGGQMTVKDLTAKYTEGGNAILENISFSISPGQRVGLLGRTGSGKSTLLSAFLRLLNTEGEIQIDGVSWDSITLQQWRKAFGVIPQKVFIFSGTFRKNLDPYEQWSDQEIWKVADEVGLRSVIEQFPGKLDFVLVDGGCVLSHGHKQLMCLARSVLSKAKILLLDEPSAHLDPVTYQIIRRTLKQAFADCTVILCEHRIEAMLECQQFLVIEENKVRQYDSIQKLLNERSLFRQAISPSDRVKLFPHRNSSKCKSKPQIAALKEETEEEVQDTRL
Outline: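 Value is ratio of test-agent to DMSO AUC of equivalent transepithelial Cl− current, integrated from forskolin (10 μM) stimulation to CFTR inhibitor-172 (20 μM) block, with benzamil 10 μM present. CF-HBE (ΔF508/ΔF508) cultures had 48 h compound exposure at 10 μM, 36.5° C before recording.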

| Structure (SMILES) | DSLS 3D (100 μM ΔT) (NBD1) | TECC (AUC, 10 μM) (CFTR) |
| --- | --- | --- |
| CC1(C)CSCc2c(c(F)cc3[nH]ccc23)Oc2ccc(F)c(c2)-c2nc(c[nH]2)C(C)(c2cccc(CCC(=O)O)c2)CCCO1 (stereo not drawn) [Compound 46, 3-[3-(22,28-difluoro-6,11,11-trimethyl-10,24-dioxa-13-thia-3,19,30-triazapentacyclo[23.3.1.12,5.015,23.016,20]triaconta-1(29),2(30),4,15,17,20,22,25,27-nonaen-6-yl)phenyl]propanoic Acid] | C (a value greater than 10 °C and less than or equal to 25 °C is marked “C”) | C (a value between 20 and 80 is marked “C”) |
| CC1(C)C[S+]([O-])Cc2c(c(F)cc3[nH]ccc23)Oc2ccc(F)c(c2)-c2nc(c[nH]2)C(C)(c2cccc(CCC(=O)O)c2)CCCO1 (stereo not drawn) [Compound 47, 3-[3-(22,28-Difluoro-6,11,11-trimethyl-13-oxo-10,24-dioxa-13M-thia-3,19,30-triazapentacyclo[23.3.1.12,5.015,23.016,20]triaconta-1(29),2,4,15,17,20,22,25,27-nonaen-6-yl)phenyl]propanoic Acid] | C (a value greater than 10 °C and less than or equal to 25 °C is marked “C”) | B (a value between 12-20 is marked “B”) |
| CC1(C)CS(=O)(=O)Cc2c(c(F)cc3[nH]ccc23)Oc2ccc(F)c(c2)-c2ncc([nH]2)C(C)(c2cccc(CCC(=O)O)c2)CCCO1 (stereo not drawn) [Compound 48, 3-[3-(22,28-Difluoro-6,11,11-trimethyl-13,13-dioxo-10,24-dioxa-13λ6-thia-3,19,30-triazapentacyclo[23.3.1.12,5.015,23.016,20]triaconta-1(29),2,4,15,17,20,22,25,27-nonaen-6-yl)phenyl]propanoic Acid] | C (a value greater than 10 °C and less than or equal to 25 °C is marked “C”) | C (a value between 20 and 80 is marked “C”) |
| CC1(C)CCCC(C)(c2cccc(CCC(=O)O)c2)c2csc(n2)-c2cccc(c2)Oc2c(F)cc3[nH]ccc3c2CCS(=O)(=O)C1 (stereo not drawn) [Compound 50, 3-[3-(22-Fluoro-6,10,10-trimethyl-12,12-dioxo-24-oxa-3,12λ6-dithia-19,30-diazapentacyclo[23.3.1.12,5.015,23.016,20]triaconta-1(29),2(30),4,15,17,20,22,25,27-nonaen-6-yl)phenyl]propanoic Acid] | C (a value greater than 10 °C and less than or equal to 25 °C is marked “C”) | C (a value between 20 and 80 is marked “C”) |
| CC1(C)CCCC(C)(c2cccc(CCC(=O)O)c2)c2coc(n2)-c2cccc(c2)Oc2c(F)cc3[nH]ccc3c2CCS(=O)(=O)C1 (stereo not drawn) [Compound 51, 3-[3-(22-Fluoro-6,10,10-trimethyl-12,12-dioxo-3,24-dioxa-12λ6-thia-19,30-diazapentacyclo[23.3.1.12,5.015,23.016,20]triaconta-1(29),2(30),4,15,17,20,22,25,27-nonaen-6-yl)phenyl]propanoic Acid] | C (a value greater than 10 °C and less than or equal to 25 °C is marked “C”) | A (a TECC value less than 12 is marked “A”) |
| CC(CC(=O)O)c1cccc(C2CCCC(C)(C)CS(=O)(=O)CCc3c(c(F)cc4[nH]ccc34)Oc3cccc(c3)-c3ccnn32)c1 (stereo not drawn) [Compound 53, 3-[3-(23-Fluoro-11,11-dimethyl-13,13-dioxo-25-oxa-13lambda6-thia-5,6,20-triazapentacyclo[24.3.1.02,6.016,24.017,21]triaconta-1(30),2,4,16,18,21,23,26,28-nonaen-7-yl)phenyl]butanoic acid] | A (an ΔTagg value less than or equal to 5 °C is marked “A”) | A (a TECC value less than 12 is marked “A”) |
| CC1(C)CCCC(c2cccc(CCC(=O)O)c2)n2ccc(n2)-c2cc(ccc2F)Oc2c(F)cc3[nH]cnc3c2CCS(=O)(=O)C1 (stereo not drawn) [Compound 57, 3-[3-(22,28-Difluoro-10,10-dimethyl-12,12-dioxo-24-oxa-12λ6-thia-5,17,19,30-tetrazapentacyclo[23.3.1.12,5.015,23.016,20]triaconta-1(29),2(30),3,15,17,20,22,25,27-nonaen-6-yl)phenyl]propanoic Acid] | B (a value above 5 °C and less than or equal to 10 °C is marked “B”) | C (a value between 20 and 80 is marked “C”) |
| CC1(C)COCC(c2cccc(CCC(=O)O)c2)n2ccc(n2)-c2cc(ccc2F)Oc2c(F)cc3[nH]ccc3c2CCS(=O)(=O)C1 (stereo not drawn) [Compound 58, 3-[3-(22,28-Difluoro-10,10-dimethyl-12,12-dioxo-8,24-dioxa-12λ6-thia-5,19,30-triazapentacyclo[23.3.1.12,5.015,23.016,20]triaconta-1(29),2(30),3,15,17,20,22,25,27-nonaen-6-yl)phenyl]propanoic Acid] | C (a value greater than 10 °C and less than or equal to 25 °C is marked “C”) | B (a value between 12-20 is marked “B”) |
| CC1(C)COCCC(c2cccc(CCC(=O)O)c2)n2ccc(n2)-c2cc(ccc2F)Oc2c(F)cc3[nH]ccc3c2CS(=O)(=O)C1 (stereo not drawn) [Compound 59, 3-[3-(22,28-Difluoro-11,11-dimethyl-13,13-dioxo-9,24-dioxa-13λ6-thia-5,19,30-triazapentacyclo[23.3.1.12,5.015,23.016,20]triaconta-1(29),2(30),3,15,17,20,22,25,27-nonaen-6-yl)phenyl]propanoic Acid] | C (a value greater than 10 °C and less than or equal to 25 °C is marked “C”) | C (a value between 20 and 80 is marked “C”) |
| CC1(C)COCCC(c2cccc(CCC(=O)O)c2)n2nccc2-c2cc(ccc2F)Oc2c(F)cc3[nH]ccc3c2CS(=O)(=O)C1 (stereo not drawn) [Compound 60, 3-[3-(23,29-Difluoro-12,12-dimethyl-14,14-dioxo-10,25-dioxa-14λ6-thia-5,6,20-triazapentacyclo[24.3.1.02,6.016,24.017,21]triaconta-1(30),2,4,16,18,21,23,26,28-nonaen-7-yl)phenyl]propanoic Acid] | A (an ΔTagg value less than or equal to 5 °C is marked “A”) | A (a TECC value less than 12 is marked “A”) |
| Cn1cc2nc1-c1cc(ccc1F)Oc1c(F)cc3[nH]ccc3c1CCS(=O)(=O)CC(C)(C)CCCC2(C)c1cccc(CC(=O)O)c1 (stereo not drawn) [Compound 61, 2-[3-(22,28-Difluoro-3,6,10,10-tetramethyl-12,12-dioxo-24-oxa-12lambda6-thia-3,19,30-triazapentacyclo[23.3.1.12,5.015,23.016,20]triaconta-1(29),2(30),4,15,17,20,22,25,27-nonaen-6-yl)phenyl]acetic Acid] | C (a value greater than 10 °C and less than or equal to 25 °C is marked “C”) | B (a value between 12-20 is marked “B”) |
| CCn1nc2nc1-c1cc(ccc1F)Oc1c(F)cc3[nH]ccc3c1CCS(=O)(=O)CC(C)(C)CCCC2c1cccc(CCC(=O)O)c1 (stereo not drawn) [Compound 62, 3-[3-(3-Ethyl-22,28-difluoro-10,10-dimethyl-12,12-dioxo-24-oxa-12λ6-thia-3,4,19,30-tetrazapentacyclo[23.3.1.12,5.015,23.016,20]triaconta-1(29),2(30),4,15,17,20,22,25,27-nonaen-6-yl)phenyl]propanoic Acid] | C (a value greater than 10 °C and less than or equal to 25 °C is marked “C”) | C (a value between 20 and 80 is marked “C”) |
| Cn1nc2nc1-c1cc(ccc1F)Oc1c(F)cc3[nH]ccc3c1CCS(=O)(=O)CC(C)(C)CCCC2(C)c1cccc(CCCO)c1 (stereo not drawn) [Compound 64, 3-[3-(22,28-Difluoro-3,6,10,10-tetramethyl-12,12-dioxo-24-oxa-12λ6-thia-3,4,19,30-tetrazapentacyclo[23.3.1.12,5.015,23.016,20]triaconta-1(29),2(30),4,15,17,20,22,25,27-nonaen-6-yl)phenyl]propan-1-ol] | C (a value greater than 10 °C and less than or equal to 25 °C is marked “C”) | B (a value between 12-20 is marked “B”) |
| Cn1nc2nc1-c1cc(ccc1F)Oc1c(F)cc3[nH]ccc3c1CCS(=O)(=O)CC(C)(C)COCC2(C)c1cccc(CC(=O)O)c1 (stereo not drawn) [Compound 69, 2-[3-(22,28-Difluoro-3,6,10,10-tetramethyl-12,12-dioxo-8,24-dioxa-12λ6-thia-3,4,19,30-tetrazapentacyclo[23.3.1.12,5.015,23.016,20]triaconta-1(29),2(30),4,15,17,20,22,25,27-nonaen-6-yl)phenyl]acetic Acid] | C (a value greater than 10 °C and less than or equal to 25 °C is marked “C”) | A (a TECC value less than 12 is marked “A”) |
| CC1(C)CCCC(c2cccc(CCC(=O)O)c2)n2cc(Cl)c(n2)-c2cc(ccc2F)Oc2c(F)cc3[nH]ccc3c2CCS(=O)(=O)C1 (stereo not drawn) [Compound 70, 3-[3-(3-Chloro-22,28-difluoro-10,10-dimethyl-12,12-dioxo-24-oxa-12λ6-thia-5,19,30-triazapentacyclo[23.3.1.12,5.015,23.016,20]triaconta-1(29),2(30),3,15,17,20,22,25,27-nonaen-6-yl)phenyl]propanoic Acid] | C (a value greater than 10 °C and less than or equal to 25 °C is marked “C”) | A (a TECC value less than 12 is marked “A”) |
